Source: US7928126B2, “Cyanopyridine derivative and use thereof as medicine” (Mitsubishi Tanabe Pharma Corporation, priority 2005, dated 2011)
Structures can show the parent of a compound that is named as a salt.

Tests used:
Format in all cases: biochemical
aurora 1 kinase = biological target: T1, aurora 1 kinase (Homo sapiens, UniProt Q96GD4); test: Aurora 1 kinase assay (32P-ATP, peptide substrate LRRWSLG); details: room temperature 60 min
T1 construct: purchased UPSTATE

[1] = biological target: T2, Porcine brain tubulin protein (Sus scrofa, UniProt P02550+P02554); test: Tubulin polymerization assay (turbidity at 405 nm); details: 10 μM compound, maximum polymerization rate, 37° C.; read-out: inhibitory rate (%)
T2 construct: 3.3 mg/ml Porcine brain tubulin protein: Cytoskeleton; purchased Cytoskeleton; host or cells: porcine brain (tissue-derived)
Procedure: A tubulin polymerization reaction mixture (50 μL) (80 mM Pipes pH=6.9, 0.5 mM MgCl2, 1 mM EGTA, 1 mM GTP, 3.3 mg/ml Porcine brain tubulin protein: Cytoskeleton, 10 μM compound) was prepared in a 96 well flat bottom plate under ice-cooling. This was placed in a plate reader (IWAKI microplate reader, EZS-ABS) controlled to a temperature of 37° C., whereby a temperature dependent tubulin polymerization reaction was initiated. Since the turbidity of the reaction mixture increases as the tubulin polymerization proceeds, the absorbance at 405 nm was measured every other minute for 30 min to monitor the polymerization reaction. Of the 30 min measures, the three largest differences per min of turbidity (generally those immediately after start of the reaction) were taken, and the average of the three values was calculated and taken as the maximum polymerization rate. Inhibitory percent (%)=(C−T)/C×100 wherein T is the maximum polymerization rate of the reaction mixture containing the compound, and C is the maximum polymerization rate of the reaction mixture without the compound.

aurora 2 kinase = biological target: T3, aurora 2 kinase (Homo sapiens, UniProt O14965); test: Aurora 2 kinase assay (32P-ATP, peptide substrate LRRASLG); details: room temperature 60 min
T3 construct: The amplified gene encoding aurora 2 kinase was introduced into Escherichia coli expression vector pET32a; made in house; host or cells: Escherichia coli BL21R (Novagen), vector pET32a
T3 sequence (O14965 1-403): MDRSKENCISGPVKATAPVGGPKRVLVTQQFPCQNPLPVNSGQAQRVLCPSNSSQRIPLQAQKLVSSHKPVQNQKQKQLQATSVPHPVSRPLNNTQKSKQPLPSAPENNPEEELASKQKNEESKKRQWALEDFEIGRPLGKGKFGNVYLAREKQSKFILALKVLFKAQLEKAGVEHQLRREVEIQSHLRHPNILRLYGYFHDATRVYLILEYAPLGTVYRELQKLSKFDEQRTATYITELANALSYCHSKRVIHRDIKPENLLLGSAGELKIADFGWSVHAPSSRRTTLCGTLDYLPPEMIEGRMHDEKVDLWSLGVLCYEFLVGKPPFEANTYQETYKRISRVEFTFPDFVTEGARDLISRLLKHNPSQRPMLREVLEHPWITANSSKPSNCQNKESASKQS

T2 sequence (P02550 whole entry): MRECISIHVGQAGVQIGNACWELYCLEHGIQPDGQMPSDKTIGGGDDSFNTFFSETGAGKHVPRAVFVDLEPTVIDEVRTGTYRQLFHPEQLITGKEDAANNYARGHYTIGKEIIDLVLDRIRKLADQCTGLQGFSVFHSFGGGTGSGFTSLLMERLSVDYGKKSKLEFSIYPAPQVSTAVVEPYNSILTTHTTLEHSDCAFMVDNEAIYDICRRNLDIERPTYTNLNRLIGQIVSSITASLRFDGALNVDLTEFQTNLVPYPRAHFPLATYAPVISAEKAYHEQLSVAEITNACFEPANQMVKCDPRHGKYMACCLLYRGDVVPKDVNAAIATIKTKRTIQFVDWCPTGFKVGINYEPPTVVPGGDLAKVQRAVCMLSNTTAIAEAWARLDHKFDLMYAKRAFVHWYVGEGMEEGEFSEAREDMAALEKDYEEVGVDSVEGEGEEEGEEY
T2 sequence (P02554 whole entry): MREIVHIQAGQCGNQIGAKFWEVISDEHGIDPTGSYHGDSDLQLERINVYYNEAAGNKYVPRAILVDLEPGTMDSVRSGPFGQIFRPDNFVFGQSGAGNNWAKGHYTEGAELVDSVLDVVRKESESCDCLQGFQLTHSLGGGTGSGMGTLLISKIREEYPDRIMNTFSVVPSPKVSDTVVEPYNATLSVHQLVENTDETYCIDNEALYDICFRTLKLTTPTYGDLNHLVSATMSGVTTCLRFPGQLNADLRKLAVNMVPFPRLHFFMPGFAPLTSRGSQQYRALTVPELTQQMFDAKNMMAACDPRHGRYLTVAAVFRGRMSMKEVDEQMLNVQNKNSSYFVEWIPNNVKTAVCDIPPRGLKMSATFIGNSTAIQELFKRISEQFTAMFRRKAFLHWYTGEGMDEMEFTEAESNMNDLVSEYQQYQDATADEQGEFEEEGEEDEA
T1 sequence (Q96GD4 whole entry): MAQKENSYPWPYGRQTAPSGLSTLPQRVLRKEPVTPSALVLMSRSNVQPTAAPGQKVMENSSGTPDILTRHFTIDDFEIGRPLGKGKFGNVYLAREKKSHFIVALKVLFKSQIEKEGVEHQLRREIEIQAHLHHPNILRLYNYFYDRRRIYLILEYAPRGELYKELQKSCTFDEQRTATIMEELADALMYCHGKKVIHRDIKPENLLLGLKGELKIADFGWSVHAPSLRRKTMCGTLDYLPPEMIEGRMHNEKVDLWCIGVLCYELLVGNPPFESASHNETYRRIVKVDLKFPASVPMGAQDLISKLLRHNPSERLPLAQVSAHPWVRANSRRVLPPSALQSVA

Structure (SMILES)	Ki (aurora 1 kinase) [nM]	inhibition at 10 µM [1] [%]	Ki (aurora 2 kinase) [nM]
Cc1cc(Nc2ccc(C#N)c(NCCOc3ccccc3Cl)n2)n[nH]1 [Example 25, 2-(2-(2-chlorophenoxy)ethylamino)-6-(5-methyl-1H-pyrazol-3-ylamino)nicotinonitrile hydrochloride]	≤ 100	51	2
Cc1cc(Nc2ccc(C#N)c(NCCOc3ccccc3)n2)n[nH]1 [Example 14, 2-(2-phenoxyethylamino)-6-(5-methyl-1H-pyrazol-3-ylamino)nicotinonitrile]		55	3
Cc1cc(Nc2cc(C3CC3)n[nH]2)nc(NCCOc2cccnc2)c1C#N [Example 34, 6-(5-cyclopropyl-1H-pyrazol-3-ylamino)-4-methyl-2-(2-(pyridin-3-yloxy)ethylamino)nicotinonitrile]	≤ 100		
Cc1cc(Nc2ccc(C#N)c(NCCOc3cccnc3)n2)n[nH]1 [Example 17, 2-(2-(pyridin-3-yloxy)ethylamino)-6-(5-methyl-1H-pyrazol-3-ylamino)nicotinonitrile]		67	2
Cc1cc(Nc2cc(-c3ccccc3)c(C#N)c(NCCOc3ccccc3)n2)n[nH]1 [Example 1, 2-(2-phenoxyethylamino)-6-(5-methyl-1H-pyrazol-3-ylamino)-4-phenylnicotinonitrile]		51	19
COc1ccccc1OCCNc1nc(Nc2cc(C)[nH]n2)cc(C)c1C#N [Example 8, 2-(2-(2-methoxyphenoxy)ethylamino)-6-(5-methyl-1H-pyrazol-3-ylamino)-4-methylnicotinonitrile]		42	6
Cc1cc(Nc2cc(C(C)C)n[nH]2)nc(NCCOc2cccnc2)c1C#N [Example 35, 6-(5-isopropyl-1H-pyrazol-3-ylamino)-4-methyl-2-(2-(pyridin-3-yloxy)ethylamino)nicotinonitrile]	≤ 100		
Cc1cc(Nc2cc(-c3cccnc3)c(C#N)c(NCCOc3cccc(F)c3)n2)n[nH]1 [Example 18, 2-(2-(3-fluorophenoxy)ethylamino)-6-(5-methyl-1H-pyrazol-3-ylamino)-4-(pyridin-3-yl)nicotinonitrile dihydrochloride]		79	2
COc1ccc(-c2cc(Nc3cc(C)[nH]n3)nc(NCCOc3ccccc3)c2C#N)cc1 [Example 4, 2-(2-phenoxyethylamino)-6-(5-methyl-1H-pyrazol-3-ylamino)-4-(4-methoxyphenyl)nicotinonitrile]		63	15
Cc1cc(Nc2cc(C)c(C#N)c(NCCOc3ccncc3)n2)n[nH]1 [Example 11, 2-(2-(pyridin-4-yloxy)ethylamino)-6-(5-methyl-1H-pyrazol-3-ylamino)-4-methylnicotinonitrile]		42	24
Cc1cc(Nc2cc(C(F)(F)F)c(C#N)c(NCCOc3ccccc3)n2)n[nH]1 [Example 3, 2-(2-phenoxyethylamino)-6-(5-methyl-1H-pyrazol-3-ylamino)-4-trifluoromethylnicotinonitrile]		36	15
Cc1cc(Nc2cc(C)c(C#N)c(NCCOc3ccc(F)c(Cl)c3)n2)n[nH]1 [Example 16, 2-(2-(3-chloro-4-fluorophenoxy)ethylamino)-6-(5-methyl-1H-pyrazol-3-ylamino)-4-methylnicotinonitrile]		65	3
Cc1ccc(OCCNc2nc(Nc3cc(C)[nH]n3)ccc2C#N)cn1 [Example 27, 2-(2-(6-methylpyridin-3-yloxy)ethylamino)-6-(5-methyl-1H-pyrazol-3-ylamino)nicotinonitrile dihydrochloride]	≤ 100	57	3
COc1ccc(-c2cc(Nc3cc(C)[nH]n3)nc(NCCOc3ccccc3Cl)c2C#N)cc1 [Example 26, 2-(2-(2-chlorophenoxy)ethylamino)-6-(5-methyl-1H-pyrazol-3-ylamino)-4-(4-methoxyphenyl)nicotinonitrile hydrochloride]		48	13
Cc1cc(Nc2ccc(C#N)c(NCCOc3ccc(OC(F)(F)F)cc3)n2)n[nH]1 [Example 30, 2-(2-(4-(trifluoromethoxy)phenoxy)ethylamino)-6-(5-methyl-1H-pyrazol-3-ylamino)nicotinonitrile]		34	80
Cc1ccc(OCCNc2nc(Nc3cc(C)[nH]n3)ccc2C#N)c(C)n1 [Example 29, 2-(2-(2,6-dimethylpyridin-3-yloxy)ethylamino)-6-(5-methyl-1H-pyrazol-3-ylamino)nicotinonitrile dihydrochloride]		42	66
Cc1cc(Nc2cc(C)c(C#N)c(NCCOc3ccc(F)cc3)n2)n[nH]1 [Example 10, 2-(2-(4-fluorophenoxy)ethylamino)-6-(5-methyl-1H-pyrazol-3-ylamino)-4-methylnicotinonitrile]		44	3
Cc1cc(Nc2cc(C)c(C#N)c(NCCOc3ccccn3)n2)n[nH]1 [Example 7, 2-(2-(pyridin-2-yloxy)ethylamino)-6-(5-methyl-1H-pyrazol-3-ylamino)-4-methylnicotinonitrile dihydrochloride]		63	6
Cc1cc(Nc2cc(C)c(C#N)c(NCCOc3cc(F)cc(F)c3)n2)n[nH]1 [Example 20, 2-(2-(3,5-difluorophenoxy)ethylamino)-6-(5-methyl-1H-pyrazol-3-ylamino)-4-methylnicotinonitrile hydrochloride]		75	2
COc1ccc(OCCNc2nc(Nc3cc(C)[nH]n3)cc(C)c2C#N)cc1 [Example 5, 2-(2-(4-methoxyphenoxy)ethylamino)-6-(5-methyl-1H-pyrazol-3-ylamino)-4-methylnicotinonitrile hydrochloride]		51	26
Cc1cc(Nc2ccc(C#N)c(NCCOc3ccccc3F)n2)n[nH]1 [Example 19, 2-(2-(2-fluorophenoxy)ethylamino)-6-(5-methyl-1H-pyrazol-3-ylamino)nicotinonitrile hydrochloride]		59	1
Cc1cc(Nc2cc(C)c(C#N)c(NCCOc3ccccc3F)n2)n[nH]1 [Example 13, 2-(2-(2-fluorophenoxy)ethylamino)-6-(5-methyl-1H-pyrazol-3-ylamino)-4-methylnicotinonitrile hydrochloride]	≤ 100	69	2
Cc1cc(Nc2cc(-c3cccnc3)c(C#N)c(NCCOc3ccccc3)n2)n[nH]1 [Example 6, 2-(2-phenoxyethylamino)-6-(5-methyl-1H-pyrazol-3-ylamino)-4-(pyridin-3-yl)nicotinonitrile]		< 0	3
Cc1cc(Nc2cc(C)c(C#N)c(NCCOc3ccccc3Cl)n2)n[nH]1 [Example 24, 2-(2-(2-chlorophenoxy)ethylamino)-6-(5-methyl-1H-pyrazol-3-ylamino)-4-methylnicotinonitrile hydrochloride]		73	1
Cc1cc(Nc2ccc(C#N)c(NCCOc3cccc(F)c3)n2)n[nH]1 [Example 15, 2-(2-(3-fluorophenoxy)ethylamino)-6-(5-methyl-1H-pyrazol-3-ylamino)nicotinonitrile]		69	2
